Results published in PMC4595804, “A strategy to discover decoy chemokine ligands with an anti-inflammatory activity” (Scientific Reports, 2015).
Read-outs that look alike come from different tables or passages of the source.

Tests used:
CCL22 = target: T1, CCL22 (Homo sapiens, UniProt O00626); assay: TRIC-r calcium assay, neutraligand protocol: compound preincubated with CCL22, EGFP-CCR4+Gqi5+ HEK cells; type: cell-based; conditions: for inhibition at 5 µM: compound 5 µM, read-out: Inhibition of CCL22 calcium responses (%)
T1 construct: codes for the mature CCL17 or CCL22 with an N-terminal thioredoxin-hexahistidin (TRX- (His)6) tag; thioredoxin (TRX) (N, cleaved yes); (His)6 (N, cleaved yes); made in house; host or cells: E. coli BL21 (DE3)
T1 sequence (O00626 25-93): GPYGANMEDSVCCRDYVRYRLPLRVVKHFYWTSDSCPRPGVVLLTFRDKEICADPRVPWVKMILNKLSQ
Procedure: EGFP-CCR4^+Gqi5^+HEKcells were loaded with fluorescent Ca^2+-indicator Indo-1 AM (5μM, Interchim) for 45 min at 37 °C. […] Cells (100,000 cells/well, 100μl) were seeded in black clear bottom 96-well plates (Greiner), and centrifuged at 250 × g for 5 min.
Two plates (96-well plates, Greiner) were prepared for the screen: one containing test compounds alone in order to determine their direct agonistic activity, and another one containing test compounds mixed with CCL17 or CCL22 at room temperature for 1 h (neutraligand protocol). The chemokines and test compounds were prepared at a 3× concentration, while digitonin was prepared at a 4× concentration. The CCR4 antagonist, C-021 served as control in the experiment. In the antagonist protocol, compounds were added to the cell plate (one compound per well) and incubated with cells for 30 min at room temperature, while the agonist (CCL17 or CCL22) was added to the ligand plate only.
(§1) Dye loaded cells were placed in the FlexStation 3 (Molecular Devices). […] For the primary screening, the ligands (50μl of chemokine mixed with DMSO or test compounds) were added to the cells at 40 s, followed by digitonin addition (50μl) at 100 s to the cells. Molecules were screened at a final concentration of 2μg/ml with 5 nM CCL17 or CCL22. […] The calcium response values (height of peak response over baseline) were determined. Hits were selected by comparing the response amplitude at the time of the chemokine addition ± test compound. The Z’ factor[29] was calculated according to the following equation: Z’ = 1-(3SD+ + 3SD−)/|Ave+ − Ave−|, where SD+ and Ave+ are respectively the standard deviation and the mean value of the positive controls (chemokine + DMSO), while SD− and Ave− are respectively the standard deviation and the mean value of the negative controls (HEPES-BSA (0.1%) mixed with DMSO, or cells mixed with C-021). Hit molecules were confirmed by performing concentration-response curves and their half maximal inhibitory concentration (IC50) values were calculated using the Kaleidagraph software.

[1] = Solubility measurements (RP-HPLC); type: physicochemical; conditions: kinetic from dmso stock, dissolved at 10 µM, room temperature
Procedure: Standard stock solutions of compounds (10mM) were prepared in DMSO, and the molecules were dissolved at a concentration of 10µM in each of the three buffers. The samples were shaken for 1h at room temperature, and centrifuged at 15,000×g . The compounds concentration in the supernatant solutions was determined using RP-HPLC (Gilson) technique. The measurements were done with a UV detector set at 230nm. The measurements were carried out at room temperature using a C18 column ([…], 50×4.6mm, Phenomenex). The aqueous mobile phase contained 0.05% trifluoroacetic acid (solvent A, Sigma-Aldrich). The organic phase was HPLC grade acetonitrile (Sigma-Aldrich CHROMASOLV) (solvent B). The mobile phase flow rate was 2ml/min, and the following program was applied for the elution: 0–0.1min, 5% B; 0.1–2.6min, 5–95% B; 2.6–3.1min, 95% B; 3.1–3.3min, 95–5% B; and 3.3–6min, 5% B. To establish external calibration curves, increasing concentrations of each compound were prepared from standard stock solutions.
The chromatograms were recorded by injecting 20µl of each standard solution, and the calibration curves were plotted using peak areas. […]

CCL17 S74A = target: T2, CCL17 S74A (Homo sapiens, UniProt Q92583, S74A); assay: Calcium responses induced by chemokine mutant, neutraligand protocol; type: cell-based; conditions: 10 μM compound, 5 nM chemokine; remaining response
T2 construct: codes for the mature CCL17 or CCL22 with an N-terminal thioredoxin-hexahistidin (TRX- (His)6) tag; TRX-(His)6 (N, cleaved yes); made in house; host or cells: E. coli BL21 (DE3)
Procedure: as §1
(§2) and the denaturated chemokines (disulfite bonds reduced by β-mercaptoethanol). The
(§3) chemokine activity was then, tested in the in vitro assays.
(§4) On-column refolding and purification of CCL5, CXCL8, CXCL10, CXCL11, CXCL12, CCL17
(§5) performed in a similar fashion as for CCL17 and CCL22. […]

CCL17 R80W = target: T3, CCL17 R80W (Homo sapiens, UniProt Q92583, R80W); assay: as above; type: cell-based; conditions: 10 μM compound, 5 nM chemokine; remaining response
T3 construct: codes for the mature CCL17 or CCL22 with an N-terminal thioredoxin-hexahistidin (TRX- (His)6) tag; TRX-(His)6 (N, cleaved yes); made in house; host or cells: E. coli BL21 (DE3)
Procedure: as §1, §2, §3, §4, §5

CCL17 N78V = target: T4, CCL17 N78V (Homo sapiens, UniProt Q92583, N78V); assay: as above; type: cell-based; conditions: 10 μM compound, 5 nM chemokine; remaining response
T4 construct: codes for the mature CCL17 or CCL22 with an N-terminal thioredoxin-hexahistidin (TRX- (His)6) tag; TRX-(His)6 (N, cleaved yes); made in house; host or cells: E. coli BL21 (DE3)
Procedure: as §1, §2, §3, §4, §5

[2] = HEPES buffer, aqueous buffer, read-out: solubility in HEPES buffer
[3] = complete cell culture medium, plasma or biological fluid, read-out: solubility in the cell culture medium

T4 sequence (Q92583 24-94 N78V): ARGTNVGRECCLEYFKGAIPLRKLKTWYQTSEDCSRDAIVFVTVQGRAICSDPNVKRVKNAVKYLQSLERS
T2 sequence (Q92583 24-94 S74A): as the sequence (Q92583 24-94 N78V) above, with S51A, V55N counted along it
T3 sequence (Q92583 24-94 R80W): as the sequence (Q92583 24-94 N78V) above, with V55N, R57W counted along it

IC50 (CCL22; 5 nM CCL22 preincubated 1 h with compound, 21 °C, read-out: IC50 for CCL22 neutralization (calcium assay)) [µM] | inhibition at 2 µg/mL (CCL22; HEK293, 2 μg/ml compound preincubated 1 h with 5 nM CCL22, read-out: inhibition of CCL22-induced calcium responses (primary screen)) [%] | Structure (SMILES) | inhibition at 5 µM (CCL22; HEK293) [%] | solubility at 1 h [1, 2] [µM] | solubility at 1 h [1, 3] [µM] | calcium response induced by CCL17 S74A preincubated with compound (CCL17 S74A) | calcium response induced by CCL17 R80W preincubated with compound (CCL17 R80W) | calcium response induced by CCL17 N78V preincubated with compound (CCL17 N78V) | calcium response induced by WT CCL22 preincubated with compound (CCL22; 10 μM compound, 5 nM chemokine, remaining response)
11.6 ± 2.5 | 46 | O=C(OCC(O)CO)c1ccccc1O (stereo not drawn) [GPN136, 2,3-dihydroxypropyl 2-hydroxybenzoate] | 35 ± 8 | > 10 | > 10 | totally ineffective | totally ineffective | totally ineffective | 
 |  | CC(C)=CCn1cnc2c1c(=O)n(C)c(=O)n2C [GPN279, 1,3-dimethyl-7-(3-methylbut-2-enyl)-1H-purine-2,6(3H, 7H)-dione] | 0 | > 10 | > 10 | no longer acted as a neutralizing molecule | 50.0 ± 11.0% | 75.0 ± 6.0% | neither inhibited WT nor CCL22 mutants
